Earlier results on one compound are cited in patent US20200245666A1, “CANNABINOID EMULSIONS, BEVERAGES AND FOODS” (Lighthouse Strategies, LLC, priority 2019, published 2020).

The conditions of this series: smoking a 3.55% THC cigarette.

On to `CCCCCc1cc(O)c2c(c1)OC(C)(C)[C@@H]1CCC(C)=C[C@@H]21` [THC, Δ9-tetrahydrocannabinol], for which the peak plasma level was 152 ± 86.3 ng/mL and the “time of peak plasma level after inhalation” value is given as “approximately 10 minutes”.
